Tested on: Methylophilus methylotrophus amidase (acylamide amidohydrolase EC No. 3-5-1-4)
Assay: Methylophilus methylotrophus amidase properties (Km)
Format: biochemical
Conditions: substrate of the amidase; conditions not given

| SMILES | Km [mM] |
| --- | --- |
| CC(N)=O [Acetamide] | 0.2 |
| C=CC(N)=O [Acrylamide] | 10 |

From patent publication US5188952A, “Process for the decomposition of acrylamide” (Imperial Chemical Industries PLC, priority 1986, dated 1993)
